# Data from US20090311264A1, “Use of Disorazoles and Their Derivatives for the Treatment of Benign and Malignant Oncoses” (AEterna Zentaris GmbH, priority 2003, published 2009).
# pEC50: −log10 of the molar value. Entries after “also recorded” stand apart in the source; their conditions may differ. Where two headings read alike, the source gives them in different places.
# What was measured:
# [1] = test system: human cervical carcinoma cell line KB/HeLa; assay: XTT proliferation assay, KB/HeLa; assay type: cell-based; conditions: for EC50: Homo sapiens, HeLa
# Text: (§1) The compounds according to the invention were investigated for their antiproliferative activity in a proliferation test on established tumor cell lines (D. A. Scuderio et al. Cancer Res. 1988, 48, 4827-4833). The test used determines the cellular dehydrogenase activity and makes possible a determination of the cell vitality and indirectly of the cell count. The cell lines used are the human cervical carcinoma cell line KB/HeLa (ATCC CCL17), the ovarian adenocarcinoma cell line SKOV-3 (ATCC HTB77), the human glioblastoma cell line SF-268 (NCI 503138), the lung carcinoma cell line NCI-H460 (NCI 503473) and the human colon adenocarcinoma cell line RKOP 27.
# [2] = test system: ovarian adenocarcinoma cell line SKOV-3; assay: XTT proliferation assay, SKOV-3; assay type: cell-based, human; conditions: for EC50: Homo sapiens, SK-OV-3, read-out: XTT proliferation assay, EC50, SKOV3
# Text: as §1
# [3] = test system: lung carcinoma cell line NCI-H460; assay: XTT proliferation assay, NCI-H460; assay type: cell-based, human; conditions: for EC50: Homo sapiens, NCI-H460, read-out: XTT proliferation assay, EC50, NCl-H460
# Text: as §1
# [4] = test system: human glioblastoma cell line SF-268; assay: XTT proliferation assay, SF-268; assay type: cell-based; conditions: for EC50: Homo sapiens
# Text: as §1
# bovine β-tubulin = assay: Inhibition of the polymerization of tubulin; assay type: biochemical; conditions: n = 2
# Experimental: The substances were tested in an in-vitro test for inhibition of the polymerization of bovine β-tubulin (D. M. Bollag et al. Cancer Res. 1995, 55, 2325-2333). In this test, tubulin purified by cycles of polymerization and depolymerization is employed, and is polymerized by addition of GTP and warming. The EC50 values of the inhibition of polymerization of β-tubulin with and without 30% associated proteins (MAPs) are indicated in table 3.
# [5] = test system: human colon adenocarcinoma cell line RKOP 27; assay: XTT proliferation assay, RKOP 27; assay type: cell-based
# Text: as §1
# [6] = test system: human hepatocellular carcinoma cells (HepG2); assay: Protein synthesis (incorporation of 14C-methionine); assay type: cell-based; conditions: 1 μM, 14C-methionine incorporation, n = 2
# Text: (§2) For the estimation of the possible side-effect potential, the influence of disorazole E1 on nonproliferating cells and on the protein biosynthesis was investigated (table 6).
# [7] = test system: doxorubicin-resistant P388; assay: XTT proliferation test, P388ADR (resistant); assay type: cell-based, murine; conditions: for EC50: Mus musculus, P388
# Text: (§3) For further characterization, the substances according to the invention were investigated against multi-drug-resistant cell lines (MDR) in comparison to the nonresistant wild-type cell lines. The cell lines investigated are the acute myeloid leukemia cell line LT1 and the resistant line LT12/mdr. Moreover, the murine P388 cell line (methylcholanthrene-induced lymphoid neoplasm) and the doxorubicin-resistant P388 were used as test systems.
# [8] = test system: Salmonella typhimurium TA98; assay type: cell-based; conditions: for AMES TA98 with S9: with rat liver enzyme S9
# Experimental: (§4) For the estimation of possible side effects, disorazole E1 was investigated for mutagenicity in a fluctuation assay against the mutant strains TA98 and TA100 of the bacterium Salmonella typhimurium at three concentrations (2.5; 5 and 10 μM). The mutagenicity investigations were further carried out in the presence of the rat liver enzyme S9.
# [9] = test system: Salmonella typhimurium TA100; assay type: cell-based; conditions: for AMES TA100 with S9: with rat liver enzyme S9
# Experimental: as §4
# [10] = test system: primary human hepatocytes; assay: Survival of nonproliferating cells (alamarBlue); assay type: cell-based; conditions: 1 μM, n = 3
# Text: as §2
# KB/HeLa cells = assay: Cell cycle analysis (G2/M arrest); assay type: cell-based, human; conditions: 24 hours at 37° C., read-out: EC50 (50% cells in G2/M)
# resistant line LT12/mdr = assay: XTT proliferation test, LT12MDR (resistant); assay type: cell-based; conditions: for EC50: Rattus norvegicus, LT12
# Text: as §3
# murine P388 cell line = assay: XTT proliferation test, P388 (nonresistant); assay type: cell-based; conditions: for EC50: Mus musculus
# Text: as §3
# [11] = test system: acute myeloid leukemia cell line LT12; assay: XTT proliferation test, LT12 (nonresistant); assay type: cell-based; conditions: for EC50: Rattus norvegicus
# Text: as §3
# NCI-H460 tumor xenograft = assay: In vivo therapy experiment, NCI-H460 tumor xenograft; design: species or system nude mice; conditions: for cases of death: n = 8 animals/group
# Experimental: The in-vivo activity of the compounds according to the invention was tested on human and murine xenograft models.
smiles,measurement,setting,value
C/C=C/[C@H](O)C(C)(C)[C@@H]1C\C=C/C=C\C=C\[C@H](OC)Cc2nc(co2)C(=O)O[C@H](C(C)(C)[C@@H](O)/C=C/C)C/C=C\[C@H]2O[C@H]2/C=C/C=C\c2nc(co2)C(=O)O1 [Disorazole A1],"XTT proliferation assay, EC50, KB/Hela",[1],0.15 ng/mL
same,"XTT proliferation assay, EC50, SKOV3",[2],0.2 ng/mL
same,"XTT proliferation assay, EC50, NCl-H460",[3],0.15 ng/mL
same,"XTT proliferation assay, EC50, SF-268",[4],0.27 ng/mL
same,"Inhibition of the polymerization of β-tubulin, EC50 with 30% MAPs",bovine β-tubulin,4800 ng/mL
same,"XTT proliferation assay, EC50, RKOP 27",[5],0.25 ng/mL
C/C=C/C(O)C(C)(C)C1C/C=C\C2OC2C=CC(OC)Cc2nc(co2)C(=O)OC(C(C)(C)C(O)/C=C/C)C/C=C\C2OC2/C=C\C=Cc2nc(co2)C(=O)O1 (centres unmarked) [Disorazole E1],"XTT proliferation assay, EC50, KB/Hela",[1],0.07 ng/mL
same,"Protein synthesis, Average, % of control",[6],95.9 % of control
same,"XTT proliferation assay, EC50, P388ADR",[7],1 ng/mL
same,"XTT proliferation assay, EC50, SKOV3",[2],0.02 ng/mL
same,AMES TA98 with S9,[8]; 2.5 μM,inactive
same,AMES TA98 without S9,[8]; 2.5 μM,inactive
same,AMES TA98 with S9,[8]; 5 μM,inactive
same,AMES TA98 without S9,[8]; 5 μM,inactive
same,AMES TA98 with S9,[8]; 10 μM,inactive
same,AMES TA98 without S9,[8]; 10 μM,inactive
same,"AMES test, overall result","[8]; TA98 and TA100, with and without S9, 2.5, 5 and 10 μM",AMES test-inactive
same,AMES TA100 with S9,[9]; 2.5 μM,inactive
same,AMES TA100 without S9,[9]; 2.5 μM,inactive
same,AMES TA100 with S9,[9]; 5 μM,inactive
same,AMES TA100 without S9,[9]; 5 μM,inactive
same,AMES TA100 with S9,[9]; 10 μM,inactive
same,AMES TA100 without S9,[9]; 10 μM,inactive
same,"Surviving cells, primary human hepatocytes, Average, % of control",[10],119.6 % of control
same,"XTT proliferation assay, EC50, NCl-H460",[3],0.04 ng/mL
same,pEC50,KB/HeLa cells,8.80
same,"XTT proliferation assay, EC50, SF-268",[4],0.17 ng/mL
same,"XTT proliferation assay, EC50, LT12MDR",resistant line LT12/mdr,4 ng/mL
same,"XTT proliferation assay, EC50, P388",murine P388 cell line,0.4 ng/mL
same,"Inhibition of the polymerization of β-tubulin, EC50 with 30% MAPs",bovine β-tubulin,1500 ng/mL
same,"XTT proliferation assay, EC50, LT12",[11],0.1 ng/mL
same,"XTT proliferation assay, EC50, RKOP 27",[5],0.06 ng/mL
same,cases of death,"NCI-H460 tumor xenograft; 0.05 mg/kg, i.v.: day 0, 7, 14","0.05 mg/kg; i.v.: day 0, 7, 14; no cases of"
same,cases of death,"NCI-H460 tumor xenograft; 0.1 mg/kg, i.v.: day 0, 7, 14","0.1 mg/kg; i.v.: day 0, 7, 14; no cases of"
same,cases of death,"NCI-H460 tumor xenograft; 0.25 mg/kg, i.v.: day 0, 7, dead on day 11, 12, 13","0.25 mg/kg; i.v.: day 0, 7; 8 dead (day"
same,reduction of the tumor growth,"NCI-H460 tumor xenograft; i.v., NCI-H460 xenograft-bearing nude mice, at doses without weight decrease or mortality",significant reduction in tumor growth; also recorded: significant reduction of the tumor growth
same,weight decrease,"NCI-H460 tumor xenograft; i.v., at doses reducing tumor growth",no significant weight decrease
CC(=O)O[C@H]1C(=O)[C@@]2(C)[C@H]([C@H](OC(=O)c3ccccc3)[C@]3(O)C[C@H](OC(=O)[C@H](O)[C@@H](NC(=O)c4ccccc4)c4ccccc4)C(C)=C1C3(C)C)[C@]1(OC(C)=O)CO[C@@H]1C[C@@H]2O [Paclitaxel],EC50,[1],10 ng/mL
same,EC50,[7],> 3160 ng/mL
same,EC50,[2],10 ng/mL
same,EC50,[3],10 ng/mL
same,pEC50,KB/HeLa cells; Homo sapiens,7.34
same,EC50,[4],10 ng/mL
same,EC50,resistant line LT12/mdr,340 ng/mL
same,EC50,murine P388 cell line,35 ng/mL
same,EC50,[11],5 ng/mL
CC[C@]1(O)C[C@@H]2CN(CCc3c([nH]c4ccccc34)[C@@](C(=O)OC)(c3cc4c(cc3OC)N(C)[C@H]3[C@@](O)(C(N)=O)[C@H](O)[C@]5(CC)C=CCN6CC[C@]43[C@@H]65)C2)C1 [Vindesine],EC50,[1],2 ng/mL
same,EC50,[7],940 ng/mL
same,EC50,[2],2 ng/mL
same,EC50,[3],6 ng/mL
same,pEC50,KB/HeLa cells; Homo sapiens,8.52
same,EC50,[4],5 ng/mL
same,EC50,resistant line LT12/mdr,222 ng/mL
same,EC50,murine P388 cell line,9 ng/mL
same,"Inhibition of the polymerization of β-tubulin, EC50 with 30% MAPs",bovine β-tubulin,400 ng/mL
same,EC50,[11],0.9 ng/mL
